Here are results for 2 compounds from patent US20110086924A1, “Method of manufacturing an eutectic crystalline sugar alcohol” (B Food Science Co., Ltd., priority 2005, published 2011).

The series in a line: Dissolving time in water (rate of dissolution). It is filed as physicochemical. The note with it: 10 g in 100 ml water at 20° C.; particle size 150 μm or more but less than 350 μm. The source says: Powder containing an eutectic crystalline sorbitol/maltitol prepared by the same way as that of Example 11 was classified into a part (crude particle part) having a particle size of 350 μm or more but less than 2 mm and a part (powdery product of 150 to 350 μm in particle size) having a particle size of 150 μm or more but less than 350 μm.
In addition, as a control, powdery sorbitol (SORBITOL FP, manufactured by NIKKEN FINE CHEMICALS CO., LTD.), powdery maltitol (AMARTY MR, manufactured by TOWA KASEI CO., LTD.), and a mixture of powdery sorbitol and powdery maltitol (1:1), which were classified so as to have a particle size of 150 μm or more but less than 350 μm (powdery product of 150 to 350 μm in particle size), were prepared.
Ten grams of each of them was poured into 100 ml of water at 20° C. and then subjected to the measurement of dissolving time. Consequently, the crude part of the powder containing an eutectic crystalline sorbitol/maltitol dissolved within 50 seconds, the powdery product of the powder containing an eutectic crystalline sorbitol/maltitol having a particle size of 150 to 350 μm dissolved within 18 seconds, the powdery sorbitol dissolved within 35 seconds, the powdery maltitol dissolved within 54 seconds, and the mixture of the powdery sorbitol and the powdery maltitol dissolved within 46 seconds.

For the compound `OC[C@@H](O)[C@@H](O)[C@H](O)[C@@H](O)CO` [powdery sorbitol, sorbitol], the dissolving time is ≤ 35 s.

Take `OC[C@@H](O)[C@@H](O[C@H]1O[C@H](CO)[C@@H](O)[C@H](O)[C@H]1O)[C@H](O)[C@@H](O)CO` [powdery maltitol, maltitol]: the dissolving time is ≤ 54 s.
